{
  "source": "patent US20150141375A1",
  "about": "(priority 2009, published 2015)",
  "key": {"JCV [1]": {"system": "JCV", "experiment": "Established JCV infection of SVG cells, in situ DNA hybridization", "type": "cell-based, JC virus", "conditions": "0.1 μM, four days"}, "HSV-2": {"system": "HSV-2", "experiment": "In vitro efficacy against HSV-2 strains in HFF (CPE, plaque reduction)", "type": "cell-based", "from_the_text": "In vitro screening by CPE assay in human foreskin fibroblast (HFF) cells with confirmation using plaque reduction assays in HFF."}, "RPTECs": {"system": "RPTECs", "experiment": "RPTEC DNA replication (BrdU), metabolic activity (WST-1), proliferation (xCELLigence)", "type": "cell-based, human", "conditions": "for reduction of rate of RPTEC proliferation (xCelligence): CMX001 0.31 μM, 48 h postexposure", "experimental": "(§1) RPTECs were infected with BKV(Dunlop). CMX001 was added before and 2 h postinfection (hpi). Cells and supernatants were harvested 24-72 hpi. BKV replication was examined by TaqMan assays, western blotting, IF staining and viability of RPTECs was examined by WST-1 assay, BrdU incorporation and a TaqMan assay.\n(§2) To use more sensitive assays, host cell DNA replication and metabolic activity using BrdU incorporation and WST-1 assays in uninfected RPTECs were used. Addition of CMX001 reduced both DNA replication (FIG. 2a) and metabolic activity (FIG. 2b) of uninfected RPTECs in a concentration-dependent manner. Compared to untreated RPTECs, CMX001 at 0.08 to 10 μM decreased DNA replication by 15% to 93% and the metabolic activity by 41% to 88%, respectively.\n(§3) The mitocondrial metabolic activity was monitored by the colorimetric WST-1 assay (Roche, Rotkreuz, Switzerland) measuring reduction of the Tetrazolium salt, WST-1, by mitochondrial dehydrogenases. DNA synthesis was quantified by colorimetric measurement of BrdU incorporation into DNA using the “Cell proliferation ELISA, BrdU” kit (Roche). The attachment and proliferation of the cells was measured as impedance using E-plates and the xCelligence system (Roche). In order for the RPTECs to attach and proliferate on the E-plates, the plates were first coated with fibronectin. Next the background impedance of the plates was monitored by addition of 100 μl medium to each well, before the plate was connected to the system and checked in the cell culture incubator for proper electrical-contacts. Subsequently, 100 μl cell suspension containing the indicated cell numbers was seeded. To determine the effect of BKV infection and CMX001 treatment, about 24 h after seeding 150 μl of the media was replaced with fresh media with or without purified BKV-Dunlop in the presence or absence of CMX001 (final concentration of 0.31 μM). The cells were grown for 96 h and impedance was measured every 15 minutes for the first 6 h then every 30 minutes. Impedance was expressed as an arbitrary unit called the Cell Index."}, "[2]": {"experiment": "RPTEC DNA replication (BrdU), metabolic activity (WST-1), proliferation (xCELLigence)", "type": "cell-based, human", "conditions": "human; BKV-infected RPTECs; read-out: CC-90 (BrdU incorporation reduced to approximately 10% of untreated infected cells)", "experimental": "as §1, §2, §3"}, "adenovirus [3]": {"system": "adenovirus", "experiment": "First fifteen EIND patients: adenovirus", "conditions": "individual patients"}, "JCV [4]": {"system": "JCV", "experiment": "Patients with JC viral infections treated with CMX001", "type": "in vivo, human", "experimental": "A study has been conducted on patients with various JC viral infections and diseases associated with JC virus. After these patients are treated with CMX001, the patients have shown significant improvements."}, "HCMV": {"system": "HCMV", "experiment": "HCMV viral DNA accumulation in HFF cells, real time PCR, 7 days", "type": "cell-based"}, "Adenovirus [5]": {"system": "Adenovirus", "experiment": "microbe, parasite or virus in culture", "type": "cell-based", "conditions": "for EC50: unidentified adenovirus"}, "BKV": {"system": "BKV", "experiment": "EIND patients previously treated with other antivirals: BKV", "type": "in vivo, human", "experimental": "A further study has been conducted on patients with various viral infections and diseases associated with virus.\nAs shown in Table 5(b), all patients that have been previously treated with other antiviral agents for example cidofovir. […] After these patients are treated with CMX001, the patients show significant improvements."}},
  "note": "Several values for one entry are separate records, joined by “and”; a condition that tells them apart may be missing. Equal values may be shown once. Entries after “also recorded” stand apart in the source; their conditions may differ.",
  "data": [
    {"smiles": "CCCCCCCCCCCCCCCCOCCCOP(=O)(O)CO[C@H](CO)Cn1ccc(N)nc1=O", "note": "[CMX001, Hexadecyloxypropyl-cidofovir]", "values": [
      {"measurement": "elimination of JCV positive cells, normalized to total cell number", "setting": "JCV [1]", "value": 94, "unit": "%"},
      {"measurement": "EC50", "setting": "HSV-2; Human alphaherpesvirus 2, ACV resistant strain 11572", "value": "0.027 ± 0.018", "unit": "µM"},
      {"measurement": "EC50", "setting": "HSV-2; Human alphaherpesvirus 2, ACV resistant strain 11680", "value": "0.009 ± 0.0007", "unit": "µM"},
      {"measurement": "EC50", "setting": "HSV-2; Human alphaherpesvirus 2, ACV resistant strain 12247", "value": "0.021 ± 0.012", "unit": "µM"},
      {"measurement": "EC50", "setting": "HSV-2; Human alphaherpesvirus 2, ACV resistant strain AG-3", "value": "0.023 ± 0.009", "unit": "µM"},
      {"measurement": "EC50", "setting": "HSV-2; Human alphaherpesvirus 2, G (wild type), Table 9", "value": "0.029 ± 0.015", "unit": "µM"},
      {"measurement": "EC50", "setting": "HSV-2; Human alphaherpesvirus 2, strain G", "value": "0.01 ± 0.01", "unit": "µM"},
      {"measurement": "EC50", "setting": "HSV-2; Human alphaherpesvirus 2, strain MS", "value": "0.08 ± 0.07", "unit": "µM"},
      {"measurement": "EC50", "setting": "HSV-2; Human alphaherpesvirus 2, strain SR", "value": "0.02 ± 0.02", "unit": "µM"},
      {"measurement": "reduction of rate of RPTEC proliferation (xCelligence)", "setting": "RPTECs; exponentially growing BKV infected cells", "value": "approximately 35%"},
      {"measurement": "reduction of rate of RPTEC proliferation (xCelligence)", "setting": "RPTECs; exponentially growing uninfected cells", "value": "approximately 25%"},
      {"measurement": "SI-90", "setting": "RPTECs; estimated, RPTECs", "value": 62.5},
      {"measurement": "CC90", "setting": "[2]", "value": 10, "unit": "µM"},
      {"measurement": "AdV viremia after 1st week", "setting": "adenovirus [3]", "value": "3.2 Log 10 copies/mL and 5.4 Log 10 copies/mL and 5.0 Log 10 copies/mL and 2.3 Log 10 copies/mL and 7.4 Log 10 copies/mL and 3.4 Log 10 copies/mL and 5.2 Log 10 copies/mL and 2.0 Log 10 copies/mL"},
      {"measurement": "AdV viremia after 1st week, change from pre-RX", "setting": "adenovirus [3]", "value": "4.0 Log 10 copies/mL and 1.0 Log 10 copies/mL and 0.5 Log 10 copies/mL and 1.9 Log 10 copies/mL and 0.7 Log 10 copies/mL and 2.0 Log 10 copies/mL and 1.3 Log 10 copies/mL and 2.5 Log 10 copies/mL"},
      {"measurement": "AdV viremia after 2nd week", "setting": "adenovirus [3]", "value": "2.2 Log 10 copies/mL (2×) and 6.2 Log 10 copies/mL (2×) and 4.1 Log 10 copies/mL and 7.0 Log 10 copies/mL and 3.3 Log 10 copies/mL and 0 Log 10 copies/mL"},
      {"measurement": "AdV viremia after 2nd week, change from pre-RX", "setting": "adenovirus [3]", "value": "5.0 Log 10 copies/mL and 0.2 Log 10 copies/mL and 1.3 Log 10 copies/mL and 2.0 Log 10 copies/mL and 1.1 Log 10 copies/mL and 2.1 Log 10 copies/mL and 0.3 Log 10 copies/mL and 4.5 Log 10 copies/mL"},
      {"measurement": "Outcome", "setting": "adenovirus [3]", "value": "Survived; also recorded: Death"},
      {"measurement": "JCV Viral Load, Urine", "setting": "JCV [4]; Sub 1, D7", "value": "D7: 557 copies/mL"},
      {"measurement": "JCV Viral Load, CSF", "setting": "JCV [4]; Sub 1, ~5 wks 2 mg/kg, D32 (Pre: 306)", "value": "D32: <300 copies/mL"},
      {"measurement": "JCV Viral Load, CSF", "setting": "JCV [4]; Sub 3, 4 days (2 doses) 4 mg/kg, Post (Pre: 518)", "value": "Post: <500 copies/mL"},
      {"measurement": "JCV Viral Load, Blood", "setting": "JCV [4]; Sub 4, EOT (Pre: 148)", "value": "EOT: 261 copies/mL"},
      {"measurement": "JCV Viral Load, CSF", "setting": "JCV [4]; Sub 4, ~2.5 wks 4 mg/kg, EOT (Pre: 16,474)", "value": "EOT: 1070 copies/mL"},
      {"measurement": "JCV Viral Load, Blood", "setting": "JCV [4]; Sub 5, ongoing ~3 wks 4 mg/kg, D7 (Pre: 1800)", "value": "D7 500 copies/mL"},
      {"measurement": "Clinical Comment", "setting": "JCV [4]; individual patients Sub 1-5 during CMX001 treatment", "value": "During treatment, the patient regained swallowing; also recorded: became undetectable (<300 copies/mL) in the CSF"},
      {"measurement": "concentration reducing the quantity of viral DNA by 10-fold", "setting": "HCMV", "value": "less than 1 nanomolar"},
      {"measurement": "reduction of accumulation of viral DNA", "setting": "HCMV", "value": "at least three orders of magnitude"},
      {"measurement": "fold reduction of viral DNA", "setting": "HCMV; CMX001 10 nanomolar", "value": 1000, "unit": "fold"},
      {"measurement": "amplification of viral DNA", "setting": "HCMV; CMX001 above 10 nM", "value": "essentially eliminated the amplification of viral DNA"},
      {"measurement": "fold more activity compared to cidofovir", "setting": "Adenovirus [5]; AdV 31", "value": 5, "unit": "fold"},
      {"measurement": "EC50", "setting": "Adenovirus [5]; AdV 31", "value": 0.28, "unit": "µM"},
      {"measurement": "EC50", "setting": "Adenovirus [5]; majority of adenovirus serotypes", "value": "< 0.05", "unit": "µM"},
      {"measurement": "hemorrhagic cystitis", "setting": "BKV; EIND 107275", "value": "improved while on CMX001"},
      {"measurement": "BK viruria", "setting": "BKV; EIND 107640, declined from 120 million", "value": 48, "unit": "million copies/mL"},
      {"measurement": "BK viremia", "setting": "BKV; EIND 107640, decreased from 1900", "value": "1900 to 28 copies/mL; BK"},
      {"measurement": "Hemorragic cystitis", "setting": "BKV; EIND 108897", "value": "Hemorragic cystitis resolved"},
      {"measurement": "BKV in urine", "setting": "BKV; EIND 108897, at last dose (baseline 7.7 log10), 4 mg/kg twice weekly 2 weeks", "value": "log10 at baseline to 5.1 log10 at last"},
      {"measurement": "decrease of BKV in urine", "setting": "BKV; EIND 109232, first two weeks, 2 mg/kg twice weekly", "value": "BKV in urine decreased 2.2 log10"}
    ]}
  ]
}
